Assay results reported in patent publication US20120149902A1, “PYRROLO[2,3-D]PYRIMIDINE DERIVATIVE” (UBE INDUSTRIES, LTD., priority 2009, published 2012).

Legend:
[1] = target: T1, purified human recombinant HER2 kinase (Lys676-Val1255, GST fusion) (Homo sapiens, UniProt P04626); experiment: HER2 kinase enzyme inhibitory activity (HTRF); format: biochemical; details: 200 μM ATP, FLT3 analogous peptide substrate, 60 minutes at room temperature
T1 construct: human recombinant HER2 kinase (Lys676-Val1255, GST fusion); GST
T1 sequence (P04626 676-1255): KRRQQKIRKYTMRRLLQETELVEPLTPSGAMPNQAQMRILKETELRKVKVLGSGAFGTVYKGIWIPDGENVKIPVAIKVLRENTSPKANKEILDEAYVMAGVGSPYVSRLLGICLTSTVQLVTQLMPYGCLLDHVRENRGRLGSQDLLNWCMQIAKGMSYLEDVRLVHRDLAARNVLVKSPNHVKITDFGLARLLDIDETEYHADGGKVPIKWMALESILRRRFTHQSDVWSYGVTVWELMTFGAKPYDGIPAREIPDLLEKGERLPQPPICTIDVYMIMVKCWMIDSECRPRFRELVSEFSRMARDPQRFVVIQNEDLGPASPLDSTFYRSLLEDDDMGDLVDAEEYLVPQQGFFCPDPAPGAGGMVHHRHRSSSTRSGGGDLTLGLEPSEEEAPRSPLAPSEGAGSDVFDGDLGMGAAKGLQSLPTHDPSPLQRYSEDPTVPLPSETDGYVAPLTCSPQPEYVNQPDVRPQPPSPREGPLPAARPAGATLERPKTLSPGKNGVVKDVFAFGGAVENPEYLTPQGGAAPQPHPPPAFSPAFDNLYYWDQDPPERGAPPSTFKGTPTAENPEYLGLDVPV
Experimental: The HER2 kinase enzyme inhibitory activity of a compound of the present invention was evaluated by using a purified human recombinant HER2 kinase (Lys676-Val1255, GST fusion) and a synthetic peptide as a substrate, and detecting the phosphorylation level of the substrate by the HTRF method (homogeneous time resolved fluorescence method). Specifically, 25 ng/well of activated HER2, 200 μM of ATP, 200 ng/well of FLT3 analogous peptide (biotin label, peptide sequence is AGGSSDNEYFYVDF), and test compound (final concentration 0.01 nM to 30 μM) were mixed in kinase reaction buffer (60 mM HEPES, 5 mM MgCl2, 5 mM MnCl2, 3 mM Na3VO4, 1.25 mM DTT, pH 7.5) to prepare 50 μL/well of total reaction volume, and the mixture was reacted for 60 minutes at room temperature. Then, the phosphorylation reaction was stopped and HTRF reaction was carried out by adding 25 μL/well of PBS solution comprising the following components and reacting the mixture for 12 to 16 hours at 4° C. The following components were dissolved in PBS (pH 7.0) to prepare the PBS solution composition: 60 mM EDTA (final concentration 20 mM), 1.2 M KF (final concentration […]), 1 mg/mL BSA (final concentration 333 μg/mL), 6 μg/mL anti-PY20-Cryptate (Cisbio international, France, final concentration 2 μg/mL), and 15 μg/mL Streptavidin labeled with XL665 (Cisbio international, France, final concentration 5 μg/mL).

[2] = test system: HER2 overexpressed gastric cancer cell line NCI-N87; experiment: Cytotoxic activity (in vitro), CellTiter-Glo viable cell count; format: cell-based; details: Homo sapiens, NCI-N87, 72 h, NCI-N87, cultured for 72 hours
Experimental: The cytotoxic activity of a compound of the present invention was investigated using a HER2 overexpressed gastric cancer cell line NCI-N87. Specifically, an appropriate amount of cells was seeded into a 96-well plate for cell culture at 50 μL/well, and precultured overnight at 37° C. under 5% —CO2 condition. A solution of a test compound in DMSO with dilution series was diluted with medium, and added to the precultured cells at the volume of 50 μL/well. The mixture was prepared such that the final concentration of DMSO became 0.1%. After the mixture was cultured for 72 hours at 37° C. under 5% —CO2 condition, 100 μL/well of CellTiter-Glo solution (Promega, Madison, Wis.) was added, the luminescence was measured using a luminometer (Wallac ARVO™ SX) 10 minutes later, and the viable cell count was determined.

[3] = test system: HER2 overexpressed gastric cancer cell line; experiment: In vivo anti-tumor effect, subcutaneous tumor transplant in nude mouse; details: dosage 100 mg/kg, oral, daily except Saturday and Sunday, 2 to 4 weeks, read-out: Tumor growth inhibition ratio (%)
Experimental: The anti-tumor effect in vivo of a compound of the present invention was evaluated using a HER2 overexpressed gastric cancer cell line. Specifically, a tumor fragment with about 5 mm square was transplanted subcutaneously using a transplantation needle, or an appropriate number of tumor cells was suspended in saline (Otsuka Pharmaceutical Co., Ltd.) and transplanted under the skin of the right axillary region of a nude mouse using a glass syringe equipped with a two-stage needle for subcutaneous injection. After the confirmation of the engraftment of the transplanted tumors, the mice were classified into groups depending on the tumor volume. The test compounds: the Example Compounds 1-1, 1-2, 1-5, 1-8, 1-13, 1-14, 1-15, 1-19, 1-20, 1-22, 2-1, 2-3, and 3-2 were each dissolved or suspended in an appropriate medium and orally administered forcedly to a mouse. The period of administration was varied from 2 weeks to 4 weeks depending on tumor, and the administration was carried out daily with drug holidays of Saturday and Sunday. The major axis (mm) and the minor axis (mm) of a tumor were measured sequentially using an electronic digital vernier caliper, and evaluated by the tumor growth inhibition ratio (GI %) on the judgement day (in principle, the next day of the final administration) using the following calculating formula.
A: Average tumor volume on the judgement day of the group to which a compound was administered (*)
B: Average tumor volume on the judgement day of the untreated control group (*)
*: The tumor volume is calculated by ½×[major axis of tumor]×[minor axis of tumor]^2.

IC50 [1]: ≥ 100 nM
Structure (SMILES): COc1ccc(Nc2ncnc3[nH]cc(CN4CCC(N)CC4)c23)cc1 [Example 1-19, [5-(4-Aminopiperidin-1-ylmethyl)-7H-pyrrolo[2,3-d]pyrimidin-4-yl](4-methoxyphenyl)amine]
GI50 [2]: 50 to 500 nM
inhibition in vivo at 100 mg/kg [3]: 44%
